Source: paper PMC3438169 (PLoS ONE, 2012)
Where a SMILES comes first, the peptide text is derived from it. The star is where a group is joined. Cbz = O=C(OCc1ccccc1)*

What was measured:
proteasome = details: ref [6], [7], [8], [9]; cited from earlier work
Text: (§1) Natural products constitute a major resource for the identification of bioactive molecules. Indeed, most antibacterials in current use are natural products or semisynthetic derivatives thereof. The argyrins are natural peptides produced by myxobacteria and actinomycetes that have an intriguing antibacterial spectrum of activity, [2], [3]. This includes the intrinsically drug resistant organism Pseudomonas aeruginosa, but not other Gram negatives tested, such as Escherichia coli or Salmonella typhimurium, unless the cells are compromised in their outer membrane permeability barrier, p ...

apoptosis = details: ref [6], [7], [8], [9]; cited from earlier work
Text: as §1

angiogenesis = details: p27-dependent mechanism; ref [6], [7], [8], [9]; cited from earlier work
Text: as §1

[1] = system: 512 human cancer cell lines; test: Compound correlation analysis across the cell line panel; format: cell-based; details: Pearson correlation across 512 cell lines
Method: All cell lines were maintained in humidified incubators at 37°C and 5% CO2 in DMEM or RPMI1640 supplemented with 10% FBS. Cells were seeded into 1536-well plates at a density of 250 cells per well, allowed to adhere for 12–24 hours, then treated for 3 days with pharmacological agents in 8-point dose response (semi-log from 8 µM to 2.5 nM), and cell viability was assessed using CellTiter Glo (Promega). […] Compound correlation analysis was performed by calculating a Pearson correlation for each compound pair (using either IC50 or Amax values) across the 512 cell lines. We required data values for a minimum of 50 cell lines in common to avoid spuriously high correlations.

[2] = system: Cox4-GFP labeled mitochondria; test: Microscopy of mitochondrial morphology (Cox4-GFP); format: cell-based, S. cerevisiae; details: Benomyl 3× IC30 (90 µM), 30 minutes
Method: BY4741 cells containing a genomic COX4-GFP fusion where grown to mid-log phase in glucose and ethanol/glycerol media and incubated with the corresponding concentrations of compound for 30 minutes. Aliquots where spotted on microscopy slides and directly imaged on a Zeiss Axiovert 200Mot microscope equipped with a AxioCam MRm digital camera using the Plan-Neofluar 100×, 1.3 oil PH3 objective (Carl Zeiss, Feldbach, Switzerland). A z-stack consisting of 3 images spaced by […] in the filterset 38 (eGFP) channel and a phase-contrast image where acquired. False colors where applied to the GFP images (green) and phase contrast (blue) and the images merged into one plane and scaled to 8-bit. Representative, individual cells where selected and assembled into a panel using Adobe Photoshop (Adobe Systems Inc.).

[3] = system: EF-G in complex with the ribosome; details: ref [22], [23], [24]; cited from earlier work
Text: This may stand in contrast to the characterized inhibitor of EF-G, fusidic acid, which binds at the GDP/GTP binding pocket and interferes with the post translocation release of EF-G bound on the riboso ...

RKO = test: Cell viability (CellTiter-Glo), RKO with siRNA or mEF-G1 variants; format: cell-based, human; details: 7 days
Method: (§2) HCT116 (ATCC, CCL-247) and RKO (ATCC, CRL-2577) cell lines were maintained in a humidified incubator at 37°C and 5% CO2 in RPMI1640 supplemented with 10% FBS. Cell viability was determined using the CellTiter-Glo luminescent cell viability assay (Promega). […] Subsequently, 40 µl of CellTiter-Glo reagent was added to each well and luminescence recorded on an Envision plate reader (Perkin Elmer). Each treatment condition was tested in triplicate and compared to an equivalent volume of DMSO as control.
(§3) Non-targeting (NT) or GFM1 siRNA pools were obtained from Dharmacon (ON-TARGETplus SMART pool D-001810 and L-013685). HCT116 and RKO cells were reverse transfected in 6-well plates using RNAiMax (Invitrogen) and 25 nM siRNA. After 2 days, cells were harvested by trypsinization and re-plated into 6-well plates for western blot analysis or into 384-well plates for compound treatments and cell viability determination using CellTiter-Glo as described above.
(§4) The human GFM1 cDNA (encoding mEF-G1, Table 2) was mutagenized in pENTR221 (Invitrogen) using QuikChangeII XL site-directed mutagenesis (Stratagene). The following point mutations were introduced: C1355T (encoding S452L), C1481T (encoding S494F) and T2078A (encoding L693Q). The GFM1 cDNAs were then subcloned into the mammalian expression vector pLenti4/TO/V5 using LR clonase II (Invitrogen) and sequence-verified. The pLenti4 constructs were then co-transfected with a lentiviral plasmid mix (encoding LP1, LP2 and VSV-G) into 293T cells, and viral particles were harvested after 72 h and used to infect HCT116 and RKO cells. Stable cell lines were generated by selection with 400 µg/ml Zeocin and plated into 6-well plates for western blot analysis or into 384-well plates for compound treatments and cell viability determination using CellTiter-Glo as described above.

HCT116 = test: Cell viability (CellTiter-Glo), HCT116 with siRNA or mEF-G1 variants; format: cell-based, human; details: 7 days
Method: as §2, §3, §4

argyrin A
Proteasome inhibition (in words) (proteasome): inhibits the proteasome | Apoptosis (in words) (apoptosis): induces apoptosis | Angiogenesis (in words) (angiogenesis): blocks angiogenesis | Correlation of IC50 and maximal activity (Amax) profile with argyrin B (in words) [1]: strong correlation

CCCCNC(=O)n1c(NC(=O)OC)nc2ccccc21 [benomyl, reference compound]
Effect on mitochondria (in words) [2]: had no effect on mitochondria

CC(=O)O[C@H]1C[C@@]2(C)[C@@H](C[C@@H](O)[C@H]3[C@@]4(C)CC[C@@H](O)[C@@H](C)[C@@H]4CC[C@@]32C)/C1=C(\CCC=C(C)C)C(=O)O [fusidic acid]
Binding to EF-G (in words) [3]: binds EF-G in complex with the ribosome

CC(C)C[C@@H](C=O)NC(=O)[C@H](CC(C)C)NC(=O)[C@H](CC(C)C)NC(=O)OCc1ccccc1 [MG132, reference compound] (Cbz-Leu-Leu-Leu-aldehyde)
Sensitivity change on knock down of mEF-G1 (in words) (RKO; GFM1 siRNA): without altering sensitivity | Sensitivity change on expression of mEF-G1 L693Q (in words) (RKO; mEF-G1 L693Q): without altering sensitivity | Sensitivity change on knock down of mEF-G1 (in words) (HCT116; HCT116, GFM1 siRNA): without altering sensitivity | Sensitivity change on expression of mEF-G1 L693Q (in words) (HCT116; HCT116, mEF-G1 L693Q): without altering sensitivity
